Results from publication PMC12351382, “Fibrinography and thrombography (thrombodynamics-4D) in atrial fibrillation assessment of direct oral anticoagulants in geriatrics patients aged 80 years and older receiving direct oral anticoagulant therapy” (Research and Practice in Thrombosis and Haemostasis, 2025).

Tests used:
[1] = Plasma DOAC concentration in ADAGE patients (chromogenic anti-FXa assay for rivaroxaban and apixaban; anti-FIIa Hemoclot assay for dabigatran); type: in vivo, human; conditions: for DOAC concentration, median (IQR): ADAGE patients ≥80 y, reduced dose: rivaroxaban 15 mg once daily, apixaban 2.5 mg twice daily, dabigatran 110 mg twice daily; for DOAC concentration, range: ADAGE patients, reduced dose (regimens as E1)
Description: (§1) ADAGE is an academic, prospective, observational multicenter study (NCT 02464488; for details, see Foulon-Pinto et al.). We recruited hospitalized patients from the university hospital’s geriatric department (Assistance Publique-Hôpitaux de Paris, Paris, France). […] The DOAC dose regimen was at the discretion of the physician. Exclusion criteria included any acute, unstable comorbid condition or an estimated life expectancy of a few weeks. Sampling (see below) and last DOAC intake times were recorded on a standardized request form. Sampling time points were at the discretion of the physicians over a period of 20 days following inclusion. Time points were classified according to the time elapsed from the last oral intake (T, hours) for patients receiving rivaroxaban. T1 to T4 corresponded to peak time (Tmax), and T20 to T24 corresponded to trough (Tmin). […] Physicians prospectively collected demographic, clinical, and laboratory data (including creatinine clearance [CrCl] calculated with the Cockcroft–Gault formula). The study was approved by the institutionnel Ethics Committee (Comité consultatif de protection des personnes pour la recherche biomédicale–Île-de-France-6–number 15.074bis). All participants gave written informed consent to participate in the study. Only patients for whom remaining plasma aliquots were available were included in the present study.
(§2) Tubes were sent to each centre’s laboratory within 2 hours after sampling and immediately double-centrifuged for 15 minutes at 2000 × g at 15 to 22 °C to obtain platelet-poor plasma. Plasma samples (500 μL aliquots) were stored at −80 °C prior to shipment on dry ice for central analysis (Haematology Laboratory, Hôpital Lariboisière). Plasma samples were thawed for 3 to 5 minutes in a 37 °C water bath just before testing.
Dedicated calibrations and controls were used. The lower limit of quantification was 20 ng/mL for the 3 assays.

[2] = system: fibrin clot formation; experiment: Thrombodynamics-4D fibrinography in plasma samples from ADAGE patients on DOACs; type: in vivo, human; conditions: for CS (clot size at 30 minutes), median (IQR) / CS (clot size at 30 minutes), range / D (clot density), median (IQR) / D (clot density), range / Fibrinography Tlag (lag time), median (IQR) / Fibrinography Tlag (lag time), range / Initial rate of clot growth (Vi), median (IQR) / Initial rate of clot growth (Vi), range / Time to Tsp (spontaneous clotting), median (IQR) / Time to Tsp (spontaneous clotting), range: ADAGE patients, reduced dose (regimens as E1)
Description: as §1, §2
(§3) The TD-4D assay was performed centrally using the Thrombodynamics analyzer system (Hemacore, Diapharma) with the TD-4D PLS dedicated kit (Hemacore, Diapharma). The system simultaneously measures spatiotemporal parameters of fibrin clot formation (fibrinography) and TG process (thrombography) in a thin layer of unstirred plasma. Briefly, 120 μL of platelet-poor plasma is added to a microcuvette containing corn trypsin inhibitor to prevent contribution of contact phase activation, then 5 μL of phospholipid solution (manufacturer’s reagent) is added. After incubation for 15 minutes at 37 °C in the Thrombodynamics device, the mixture is transferred to a second microcuvette containing calcium ions, and then immediately transferred to the measurement cuvette. Finally, the activator insert, whose surface is coated with immobilized tissue factor (100 pmol/m^2), is then transferred to the cuvette. The process of fibrin clot formation is recorded in a time-lapse video-microscopy mode using a dark-field light scattering method. Simultaneously, the system monitors TG by fluorimetry, based on the ability of thrombin to cleave a fluorogenic substrate, 7-amino-4-methylcoumarin (AMC) bound to a short amino acid sequence (Arg-Gly-Gly). The rate of AMC formation is proportional to local thrombin concentration. The microcuvette is maintained at 37 °C and is illuminated with red (625 nm) or ultra-violet (365 nm) light emitting diodes. Clot growth is detected with red light scattering, while AMC fluorescence is detected with UV. Scattered red light and fluorescence passing through the macro lens are recorded by a charge-coupled device system. Images under red and blue light are acquired once per minute. The whole analysis lasts 1 hour. The Thrombodynamics software (Hemacore, Diapharma) calculates parameters of spatiotemporal dynamics of fibrin clot formation and TG [40, 46]. […]

[3] = system: thrombin generation; experiment: Thrombodynamics-4D thrombography in plasma samples from ADAGE patients on DOACs; type: in vivo, human; conditions: for ETP (endogenous thrombin potential, ETP_ATG), median (IQR) / ETP (endogenous thrombin potential, ETP_ATG), range / Thrombin peak height (Cmax_ATG), median (IQR) / Thrombin peak height (Cmax_ATG), range / Thrombography Tlag (Lag_ATG), median (IQR) / Thrombography Tlag (Lag_ATG), range / Time to peak (Tmax_ATG), median (IQR) / Time to peak (Tmax_ATG), range: ADAGE patients, reduced dose (regimens as E1)
Description: as §1, §2, §3

[4] = system: fibrin clot formation; experiment: Thrombodynamics-4D fibrinography in pooled normal plasma (Cryocheck) spiked with DOACs; type: biochemical, human; conditions: 0 to 1000 nM, mainly at low DOAC concentrations
Protocol: (§4) Frozen pooled normal plasma samples (Cryocheck-Cryopep) were spiked with increasing concentrations of DOACs (0-450 ng/mL), as previously described. […] were kindly provided by Bristol Myers Squibb/Pfizer, Bayer Healthcare, and Boehringer Ingelheim, respectively.
The TD-4D assay was performed centrally using the Thrombodynamics analyzer system (Hemacore, Diapharma) with the TD-4D PLS dedicated kit (Hemacore, Diapharma). The system simultaneously measures spatiotemporal parameters of fibrin clot formation (fibrinography) and TG process (thrombography) in a thin layer of unstirred plasma. Briefly, 120 μL of platelet-poor plasma is added to a microcuvette containing corn trypsin inhibitor to prevent contribution of contact phase activation, then 5 μL of phospholipid solution (manufacturer’s reagent) is added. […] The process of fibrin clot formation is recorded in a time-lapse video-microscopy mode using a dark-field light scattering method. […] Clot growth is detected with red light scattering, while AMC fluorescence is detected with UV. Scattered red light and fluorescence passing through the macro lens are recorded by a charge-coupled device system. […]
(§5) The following fibrinography parameters were recorded (see Supplementary Table 1): (i) lag time (Tlag, minutes); (ii) initial rate of clot growth (Vi, μm/min); (iii) rate of clot growth (V, μm/min); (iv) clot size (CS, μm) measured at 30 minutes; (v) clot density (D, arbitrary units); (vi) time to spontaneous clotting (Tsp, minutes). The following thrombography parameters (at the near-activator area) were recorded (see Supplementary Table 1): (i) Tlag (minutes); (ii) time to thrombin peak (minutes); (iii) maximal thrombin concentration (ie, thrombin peak height, Cmax_ATG, AU/L); (iv) endogenous thrombin potential (ETP_ATG, AU⋅min/L); (v) stationary amplitude of moving peak of thrombin (Ast, AU/L); (vi) rate of thrombin peak propagation (μm/min; see Supplementary Videos 1–3).

[5] = system: thrombin generation; experiment: Thrombodynamics-4D thrombography in pooled normal plasma (Cryocheck) spiked with DOACs; type: biochemical, human
Protocol: as §4
as §3, with “minute.” for “minute. The whole analysis lasts 1 hour. The Thrombodynamics software (Hemacore, Diapharma) calculates parameters of spatiotemporal dynamics of fibrin clot formation and TG [40, 46].”
as §5

[6] = all ADAGE patient samples, any time point and dose
[7] = all ADAGE patient samples, Spearman
[8] = univariate analysis, Tmax, line marked Halving
[9] = univariate analysis, Tmin, line marked Halving

O=C(NC[C@H]1CN(c2ccc(N3CCOCC3=O)cc2)C(=O)O1)c1ccc(Cl)s1 [Rivaroxaban]
DOAC concentration, median (IQR) ([1]; Tmax (peak)): 248 (181-397) ng/mL
DOAC concentration, range ([1]; Tmax (peak)): 64 to 676 ng/mL
DOAC concentration, median (IQR) ([1]; Tmin (trough)): 42 (27-69) ng/mL
DOAC concentration, range ([1]; Tmin (trough)): 20 to 149 ng/mL
DOAC plasma concentration, lower end of range [1, 6]: < 20 ng/mL
DOAC plasma concentration, upper end of range [1, 6]: 676 ng/mL
CS (clot size at 30 minutes), median (IQR) ([2]; Tmax (peak)): 1236 (1112-1393) μm
CS (clot size at 30 minutes), range ([2]; Tmax (peak)): 1019-1759 μm
D (clot density), median (IQR) ([2]; Tmax (peak)): 23,230 (20,060-28,420) a.u.
D (clot density), range ([2]; Tmax (peak)): 14,690-33,710 a.u.
Fibrinography Tlag (lag time), median (IQR) ([2]; Tmax (peak)): 2.0 (1.7-2.6) min
Fibrinography Tlag (lag time), range ([2]; Tmax (peak)): 1.3 to 4.7 min
Initial rate of clot growth (Vi), median (IQR) ([2]; Tmax (peak)): 60.6 (56.2-65.3) μm/min
Initial rate of clot growth (Vi), range ([2]; Tmax (peak)): 45.0-84.6 μm/min
Time to Tsp (spontaneous clotting), median (IQR) ([2]; Tmax (peak)): 18.5 (11.4-31.6) min
Time to Tsp (spontaneous clotting), range ([2]; Tmax (peak)): 7.7 to 58.1 min
CS (clot size at 30 minutes), median (IQR) ([2]; Tmin (trough)): 1691 (1632-1734) μm
CS (clot size at 30 minutes), range ([2]; Tmin (trough)): 1276-2029 μm
D (clot density), median (IQR) ([2]; Tmin (trough)): 23,940 (20,550-30,160) a.u.
D (clot density), range ([2]; Tmin (trough)): 18,160-37,370 a.u.
Fibrinography Tlag (lag time), median (IQR) ([2]; Tmin (trough)): 1.2 (1.0-1.4) min
Fibrinography Tlag (lag time), range ([2]; Tmin (trough)): 0.8 to 2.1 min
Initial rate of clot growth (Vi), median (IQR) ([2]; Tmin (trough)): 70.4 (64.9-75.8) μm/min
Initial rate of clot growth (Vi), range ([2]; Tmin (trough)): 56.5-87.1 μm/min
Time to Tsp (spontaneous clotting), median (IQR) ([2]; Tmin (trough)): 10.9 (7.1-23.1) min
Time to Tsp (spontaneous clotting), range ([2]; Tmin (trough)): 3.2 to 42.3 min
Change of CS (clot size) with increasing concentrations ([2]; all ADAGE patient samples): decreased
Association of D (clot density) with DOAC concentration [2, 7]: not
Relationship between time to spontaneous clot formation (Tsp) and DOAC levels [2, 7]: no relationship
Effect of DOAC concentration at Tmax (βC.pic) on fibrinography initial velocity of clot formation [2, 8]: ≈ −0.001769%
Effect of DOAC concentration at Tmin (βC.res) on fibrinography initial velocity of clot formation [2, 9]: ≈ 0.08094%
ETP (endogenous thrombin potential, ETP_ATG), median (IQR) ([3]; Tmax (peak)): 1391 (1176-1774) AU⋅min/L
ETP (endogenous thrombin potential, ETP_ATG), range ([3]; Tmax (peak)): 601-2371 AU⋅min/L
Thrombin peak height (Cmax_ATG), median (IQR) ([3]; Tmax (peak)): 203 (140-268) AU/L
Thrombin peak height (Cmax_ATG), range ([3]; Tmax (peak)): 64-371 AU/L
Thrombography Tlag (Lag_ATG), median (IQR) ([3]; Tmax (peak)): 1.1 (0.8-1.5) min
Thrombography Tlag (Lag_ATG), range ([3]; Tmax (peak)): 0.6 to 3.9 min
Time to peak (Tmax_ATG), median (IQR) ([3]; Tmax (peak)): 3.1 (2.6-3.8) min
Time to peak (Tmax_ATG), range ([3]; Tmax (peak)): 2.6 to 7.1 min
ETP (endogenous thrombin potential, ETP_ATG), median (IQR) ([3]; Tmin (trough)): 1832 (1322-2480) AU⋅min/L
ETP (endogenous thrombin potential, ETP_ATG), range ([3]; Tmin (trough)): 557-3572 AU⋅min/L
Thrombin peak height (Cmax_ATG), median (IQR) ([3]; Tmin (trough)): 289 (254-422) AU/L
Thrombin peak height (Cmax_ATG), range ([3]; Tmin (trough)): 132- 544 AU/L
Thrombography Tlag (Lag_ATG), median (IQR) ([3]; Tmin (trough)): 0.2 (0.1-0.4) min
Thrombography Tlag (Lag_ATG), range ([3]; Tmin (trough)): 0.1 to 0.9 min
Time to peak (Tmax_ATG), median (IQR) ([3]; Tmin (trough)): 2.1 (1.6-2.1) min
Time to peak (Tmax_ATG), range ([3]; Tmin (trough)): 1.6 to 3.1 min
Change of ETP_ATG with increasing DOAC plasma concentrations ([3]; all ADAGE patient samples): decreased
Effect of DOAC concentration at Tmax (βC.pic) on thrombography peak height (PH) [3, 8]: ≈ 0.1032%
Effect of DOAC concentration at Tmin (βC.res) on thrombography peak height (PH) [3, 9]: ≈ 0.238%
Samples in which spontaneous clotting occurred [4]: 14%
Change of Ast (stationary amplitude of thrombin moving peak) with increasing concentrations [5]: not
